The test system of test [1] is MCF-7 cells. The test can be described thus: Monodansylcadaverine (MDC) staining assay for autophagy. Type of test: cell-based, human. As to conditions: 24 h, compared with control; 3-MA as co-treatment with E10. As to the method:
To investigate whether E10 induced autophagy in MCF-7 cells, we performed Monodansylcadaverine (MDC) staining, transmission electron microscopy (TEM), and Western blot analysis to evaluate autophagy-related markers. MDC is a fluorescent probe commonly used to detect the formation of autophagic vacuoles, as it specifically labels autophagosomes.
MDC is a staining indicator for the formation of autophagosome. MCF-7 cells were seeded at a density of 2 × 10^5 cells per well in 6-well plates. MCF-7 cells were inoculated into a 6-well plate, and the cells were treated with E10 for 24 h. The treated cells were washed twice with buffer and then stained with MDC (Beijing Solarbio Science & Technology Co., Ltd., Beijing, China) for 40 min. The cells were then detected under a fluorescence microscope (Carl Zeiss, Jena, Germany).

The subject of test [2] is MCF-7 cells. Put plainly: Annexin V/PI apoptosis assay by flow cytometry. The class given is cell-based, human. The protocol:
The ability of drugs to induce cancer cell apoptosis is a key indicator of their chemotherapeutic potential. […] To examine the apoptotic effects of E10, an Annexin V-FITC dual-staining assay (with flow cytometric analysis) was performed. As shown in Figure 3A (also Figure 3C), treatment with increasing concentrations of E10 induced a marked elevation in apoptotic cell populations.
Autophagy has bidirectional regulation effects on cell survival. To confirm the role of autophagy in E10-induced cell death, 3-MA was used as an autophagy blocker.
MCF-7 cells were seeded at a density of 6 × 10^5 cells per well in 12-well plates and incubated in a 37 °C, 5% CO2 incubator for 24 h. After treatment with different concentrations of compound E10, the cells were washed with PBS two times, collected by trypsin enzymic digestion and centrifugation, and the collected cells were subsequently stained with 5 µL Annexin V-APC (YSRIBIO-C1084) and 5 µL PI for 10 min in the dark conditions. The cell apoptosis was measured with the flow cytometry (BD), and the data were analyzed by flowjo 10.6 software.
Background: In flow cytometry, cells or beads pass a laser one at a time.

Test [3] deals with MCF-7 multicellular tumor spheroids. Put plainly: 3D spheroid tumor model (calcein AM/PI). Type of test: cell-based, human. As to conditions: E10 1, 5 and 10 μM, 4 days. From the text: Three-dimensional (3D) cell culture provides an environment that allows cells to grow and interact with their surroundings in all spatial dimensions, closely mimicking the physiological conditions found in vivo [44]. […] To evaluate the long-term antitumor effects of E10 in a more physiologically relevant model, a 3D spheroid tumor model was established using MCF-7 breast cancer cells. Each spheroid was formed by approximately 2000 MCF-7 cells and cultured for 3 days to allow spheroid maturation. These spheroids were subsequently treated with varying concentrations of E10 (1, 5, and 10 μM) at 48-h intervals over a period of 4 days. For visualization, the multicellular tumor spheroids (MCTSs) were stained with calcein AM and propidium iodide (PI) in culture medium for 1.5 h. The live/dead cell distribution within the spheroids was then visualized using laser scanning confocal microscopy. […] This limited cell death is likely attributable to hypoxic and nutrient-deprived conditions resulting from excessive cell proliferation.
[…] MCF-7 cells were seeded into cell-repellent 96-well U-bottom plates (Sbio, Tokyo, Japan) at a density of 3000 cells per well and cultured for 72 h to promote spheroid formation. […] After treatment, spheroids were stained with 5 μM PI and 10 μM Calcein-AM, and observed under a fluorescence microscope (Olympus, Tokyo, Japan).

The subject of test [4] is MCF-7 cells. Put plainly: Intracellular ROS assay (DCFH-DA, flow cytometry). Type of test: cell-based, human. As to conditions: 24 h, compared to control. The protocol:
Oxidative stress is known to increase intracellular reactive oxygen species (ROS) levels and to contribute to cell apoptosis and autophagy. To investigate whether E10 induced intracellular ROS accumulation, ROS levels in MCF-7 cells were determined by flow cytometric assay using DCFH-DA as a redox-sensitive probe.
For the detection of intracellular ROS levels, MCF-7 cells were seeded at a density of 5 × 10^5 cells per well in a 12-well plate and treated with different concentrations of compound E10 for 24 h. The cells were collected and stained with 5 μM of DCFH-DA dye (Yeasen, Shanghai, China, 50101ES01) in the incubator for 30 min. Flow cytometry (BD) detected the stained cell samples, and the data were analyzed using FlowJo software.

The next test relates to HepG2. Put plainly: CCK-8 antiproliferative assay, HepG2. The class given is cell-based. As to conditions: Homo sapiens, HepG2; CCK-8, 48 h, mean ± SD of three experiments; read-out: IC50 HepG2. The protocol: After synthesis and characterization, the isolongifolenone bicyclocaprolactam derivatives were evaluated for their in vitro antiproliferative activity against three cancer cell lines (MCF-7, HepG2, A549) using a CCK-8 assay. […] In general, the antiproliferative activities of most of these compounds were similar, irrespective of whether electron-withdrawing or electron-donating substituents were introduced in the phenoxy ring.
Three cancer cell lines (human breast adenocarcinoma cells MCF-7, human lung adenocarcinoma epithelial cells A549, and human hepatocellular carcinoma cells HepG2) were obtained from the Cell Bank of the Chinese Academy of Sciences (Shanghai, China). LO2 human normal liver cells were also purchased from STEM RECELL (Beijing, China, STM-CL-5770). The anti-proliferation activity of compounds was tested on three cancer cell lines. The cytotoxicity of compounds as tested on normal cell line (human normal liver cells LO2). Cells were seeded at a density of 5000 cells per well in 96-well plates. Natural product piperlongumine was used as the positive control. All experiments were performed in triplicate. Three cancer cell lines were cultured in High DMEM medium or RIPM 1640 containing 10% FBS (Sijiqing, Hangzhou, China) and 1% antibiotics at 37 °C in a 5% CO2 incubator. The experimental cells were seeded in a 96-well plate at 5000 cells per well and incubated for 24 h. The old medium was replaced with experimental medium, and the cells were cultured for 48 h. Afterward, 10 µL of CCK-8 solution was added to each well, and the cells were incubated for 3 h. The absorbance at 450 nm was measured using a microplate reader.

Where [5] appears, read: Figure 6A, E10 or E10 + 3MA, 24 h.

As for `CC1(C)C2=CC(=O)N(C(=O)C=Cc3cccc(C(F)(F)F)c3)CC(C)(C)C23CCC1C3` (stereo not drawn) [E10, 5,5,9,9-Tetramethyl-3-(3-(3-(trifluoromethyl)phenyl)acryloyl)-4,5,6,7,8,9-hexahydro-5a,8-methanobenzo[d]azepin-2(3H)-one], in the test on MCF-7 cells [1], the “MDC staining, autophagosome formation” value is “significantly increased the number of punctate green fluorescence signals”. In the test on MCF-7 cells [2] (E10 0.5 µM, 24 h), this compound gave an apoptosis rate of 7.78%. Also, the apoptosis rate with MCF-7 cells [2] (E10 1.0 µM, 24 h) was found to be 19.53%. In the test on MCF-7 cells [2] (E10 2.0 µM, 24 h), this compound had an apoptosis rate of 24.93%. In addition, in the test with MCF-7 cells [2] (setting [5]), the Q1 necrotic cells amounted to 15.9, the “Q2 late apoptotic cells” value was determined as 9.62, the “Q3 early apoptotic cells” value was determined as 0.47 and the Q4 viable cells is reported as 74.0. Moreover, the “cell apoptosis with or without autophagy blocker 3-MA” value with MCF-7 cells [2] (Figure 6A, in comparison with control) is given as “significantly increased”. In test [3], the “viability and structural integrity of MCF-7 MCTSs” value was “dose-dependent inhibitory effect”. In the test with MCF-7 cells [4], the “intracellular ROS levels” value is given as “markedly increased”. Further, the IC50 in the test with HepG2 is 1360 ± 180 nM.

What is called IC50 is the concentration at which inhibition is half-maximal.

Values taken from PMC12526212, “Novel Isolongifolenone-Based Caprolactam Derivatives as Potential Anticancer Agents via the p53/mTOR/Autophagy Pathway” (Molecules, 2025).
